This assay has as its target T1, ACIII (alternative complex III) (Rhodothermus marinus, UniProt D0MDD6).
T1 construct: gene Rmar_0223; native multi-subunit membrane complex purified from R. marinus membranes in DDM; ActB Tat signal peptide (74 residues) absent; one further unidentified subunit; with Quinol:cytochrome c oxidoreductase pentaheme cytochrome subunit (alternative complex III subunit ActA); Quinol:cytochrome c oxidoreductase iron-sulfur protein (alternative complex III subunit ActB); Quinol:cytochrome c oxidoreductase membrane protein (alternative complex III subunit ActD); Quinol:cytochrome c oxidoreductase monoheme cytochrome subunit (alternative complex III subunit ActE); Alternative complex III subunit ActG; Hypothetical protein Rmar_1979 (ActH)
Kind of assay: isothermal titration calorimetry. The assay is classed as binding. The note with it: read-out: log Ka (converted). (In general: In ITC the heat of successive injections is recorded.)

Each structure is given as a SMILES string.

Consider `CC1=C(C)C(=O)c2ccccc2C1=O` [2,3-dimethyl-1,4-naphthoquinone], for which the Kd is 316 nM.
